According to patent publication US20130123357A1, “Methods for Providing Enhanced Resveratrol Activity Using 4-Acetoxy-Resveratrol” (BRIGHAM YOUNG UNIVERSITY, priority 2010, published 2013):
Marks after values point to notes of the source that are not given here.

Tests used:
[1] = Shelf-life stability of the synthesized material; format: physicochemical
Excerpt: The synthetic method described above uses a direct, efficient synthesis at a low cost, and results in improved stability (longer shelf life) where it remains a white crystalline material for over 2 years, as well as higher biological activity (increase absorption, lower dose and longer half-life) with various cosmetic, nutraceuticals (nutritional supplements) and pharmaceutical applications, including (a) anti-aging, anti-oxidant, (b) anti-inflammatory, (c) anti-cancer, (d) neuroprotection (for improved brain health), (e) cardiovascular health, (f) prostate health and (g) skin health, as described below in the following examples.

[2] = test system: human dermal monolayer fibroblasts; experiment: Collagen deposition by ELISA for Human Type I collagen C-terminal propeptide; format: cell-based; details: approximately 9 μM, 48 hours, vehicle 0.1% DMSO
Method: 4′-Acetoxy-resveratrol was tested to determine whether it can stimulate collagen deposition in human monolayer dermal fibroblasts in the following examples. In this assay, we first determined the toxicity of the test materials (untreated cells, positive control-ascorbate, vehicle=0.1% DMSO, and a range of the 4′-acetoxy-resveratrol molecule, from approximately 10 nM to 10 μM).
The human dermal monolayer fibroblasts were exposed to the test materials for approximately 48 hours. Thereafter, the samples were processed for MTT and collagen deposition, etc.
Collagen deposition by ELISA for Human Type I collagen C-terminal propeptide was determined. Dermal fibroblasts synthesize primarily type I collagen, and the cleavage of the C-terminal propeptide is required for deposition into fibrils within the extracellular matrix. […] The amount of cleaved propeptide is directly proportional to the amount of type I collagen deposited, and can be precisely quantified using purified standards and a commercial ELISA kit (Takara Mirus, Inc., Cat. # TAK-MK-101). After 48 hours in the presence of the test materials or controls, culture medium supernatants were removed and immediately analyzed using the ELISA kit according to manufacturer's instructions using a Molecular Devices Vmax plate 96 well plate reader and SoftMax software. […]

[3] = Body weight gain and food/water intake in rats, 21 days; format: in vivo, adult male Long-Evans rats
Method: (§1) Adult male Long-Evans rats were administered 4AR for 21 days. DMSO served as the control and 4AR was dissolved into DMSO at the following concentrations: 5.0 mg/kg body weight, 20.0 mg/kg body weight and 90.0 mg/kg body weight (n=12 per group).
After 10 days of receiving the treatments there was a significant decrease in body weight gain, by an average of approximately 17 grams, in the 90.0 mg/kg vs. the control values (525.0+5.1 vs. 542.1+6.2 grams, respectively. After 20 days on the treatments there was a significant decrease in body weight gain, by approximately 14 grams, in the 20.0 mg/kg vs. control values (566.0+4.7 vs. 551.8+3.7 grams). Finally, there was an even greater significant decrease in body weight gain between the 90.0 mg/kg vs. control values after 20 days on the treatments representing a 54.2 grams decrease (or 566.0+4.7 vs. 511.8+4.1 grams).

[4] = target: T1, prostate type I 5α-reductase enzyme (Rattus norvegicus, UniProt P24008); experiment: Prostate 5α-reductase enzyme activity of treated rats; format: in vivo; details: DMSO controls 8.7 + 0.6
T1 construct: from tissue; host or cells: prostate of adult male Long-Evans rats dosed with 4AR for 21 days
T1 sequence (P24008 1-259): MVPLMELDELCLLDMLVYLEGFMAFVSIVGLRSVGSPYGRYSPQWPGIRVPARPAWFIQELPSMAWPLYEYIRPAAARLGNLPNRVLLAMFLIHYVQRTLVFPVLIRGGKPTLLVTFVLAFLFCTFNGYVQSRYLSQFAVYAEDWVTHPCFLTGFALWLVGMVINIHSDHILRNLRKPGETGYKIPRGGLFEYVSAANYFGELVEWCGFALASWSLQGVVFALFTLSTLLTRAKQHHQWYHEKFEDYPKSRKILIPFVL
Method: as §1
Since, the 5a-reductase enzyme (which converts testosterone to 5a-dihydrotestosterone) is important in prostate health in reference to benign prostatic hyperplasia (BPH) and the treatment and prevention of prostate cancer, we determined if prostate type I 5α-reductase enzyme activity was impacted by these treatments by quantifying the enzymatic rates of each animal as described above (in this study there were approximately 10 animals per treatment group).

SIRT1 (Sirtuin 1) = experiment: Gene array qPCR, human dermal equivalent: SIRT1; format: cell-based; details: 1.0% 4AR in DMSO, human skin equivalent, 24 hours
Excerpt: (§2) In this gene array experiment, we examined the ability of 4AR at a one percent concentration in DMSO (where 100% DMSO served as the vehicle) to either stimulate or inhibit several important genes and quantify directly the transcribed messenger RNA (mRNA) levels by Taqman real time PCR. The test material was placed onto a biological barrier (human dermal equivalent) using a MatTek “ready-to-use” in vitro organotypic tissue equivalent, based on well-documented and validated protocols, using the EpiDerm™ Model EPI-200 Kit. The MatTek kits uses normal (non-transformed) donated human cells as the basis for all of its tissue equivalents. These cells are grown (cultured) in standard Millipore Millicell™ Single Well Tissue Culture Plate Inserts at the air liquid interface or ALI. Apical (top) surface of tissue is exposed to air allowing for direct application of test articles. […] Once the 4 AR test material penetrated the human skin barrier equivalent the gene chip was activated and subsequently mRNA levels were quantified and the results represent stimulation or inhibition of a specific gene.
(§3) To investigate the effects of 4AR on the expression of genes associated with the extracellular matrix (ECM) of the skin, qPCR experiments were conducted using the tissue cultures (model system described above) with subsequent quantification of mRNA levels from […] tissue/cells. […]

[5] = test system: Tissue inhibitor of metalloproteinases 1; experiment: Gene array qPCR, human dermal equivalent: TIMP1; format: cell-based; details: 1.0% 4AR in DMSO, human skin equivalent, 24 hours, mRNA by qPCR
Excerpt: as §2, §3

Type IV collagen alpha 1 = experiment: Gene array qPCR, human dermal equivalent: Type IV collagen alpha 1; format: cell-based; details: 1.0% 4AR in DMSO, human skin equivalent, 24 hours, mRNA by qPCR
Excerpt: as §2, §3

Type IV collagen alpha 2 = experiment: Gene array qPCR, human dermal equivalent: Type IV collagen alpha 2; format: cell-based; details: 1.0% 4AR in DMSO, human skin equivalent, 24 hours, mRNA by qPCR
Excerpt: as §2, §3

[6] = test system: Procollagen III (alpha 1); experiment: Gene array qPCR, human dermal equivalent: Procollagen III; format: cell-based; details: 1.0% 4AR in DMSO, human skin equivalent, 24 hours, mRNA by qPCR
Excerpt: as §2, §3

[7] = test system: Tissue Inhibitor of metalloproteinases 2 (TIMP2); experiment: Gene array qPCR, human dermal equivalent: TIMP2; format: cell-based; details: 1.0% 4AR in DMSO, human skin equivalent, 24 hours, mRNA by qPCR
Excerpt: as §2, §3

Protein Kinase C alpha = experiment: Gene array qPCR, human dermal equivalent: Protein Kinase C alpha; format: cell-based; details: 1.0% 4AR in DMSO, human skin equivalent, 24 hours, mRNA by qPCR
Excerpt: as §2, §3

Elastin = experiment: Gene array qPCR, human dermal equivalent: Elastin; format: cell-based; details: 1.0% 4AR in DMSO, human skin equivalent, 24 hours, mRNA by qPCR
Excerpt: as §2, §3

IL-6 (interleukin 6) = experiment: Gene array qPCR, human dermal equivalent: IL-6; format: cell-based; details: 1.0% 4AR in DMSO, human skin equivalent, 24 hours, mRNA by qPCR
Excerpt: as §2, §3

IL-1a (interleukin 1a) = experiment: Gene array qPCR, human dermal equivalent: IL-1a; format: cell-based; details: 1.0% 4AR in DMSO, human skin equivalent, 24 hours, mRNA by qPCR
Excerpt: as §2, §3

IL-8 (interleukin 8) = experiment: Gene array qPCR, human dermal equivalent: IL-8; format: cell-based; details: 1.0% 4AR in DMSO, human skin equivalent, 24 hours, mRNA by qPCR
Excerpt: as §2, §3

[8] = test system: S100 Calcium binding protein A8; experiment: Gene array qPCR, human dermal equivalent: S100 A8; format: cell-based; details: 1.0% 4AR in DMSO, human skin equivalent, 24 hours, mRNA by qPCR
Excerpt: as §2, §3

CC(=O)Oc1ccc(C=Cc2cc(O)cc(O)c2)cc1 [4AR, 3,5-dihydroxy-4′-acetoxy stilbene]
stability (shelf life): remains a white crystalline material [1]: over 2 years
increase of collagen deposition compared to vehicle control [2]: 65%
decrease in body weight gain vs. control ([3]; 20.0 mg/kg, after 20 days): approximately 14 grams
body weight ([3]; 20.0 mg/kg, after 20 days, control 566.0+4.7): 551.8+3.7 grams
decrease in body weight gain vs. control ([3]; 90.0 mg/kg, after 10 days): approximately 17 grams
body weight ([3]; 90.0 mg/kg, after 10 days, control 542.1+6.2): 525.0+5.1 grams
decrease in body weight gain vs. control ([3]; 90.0 mg/kg, after 20 days): 54.2 grams
body weight ([3]; 90.0 mg/kg, after 20 days, control 566.0+4.7): 511.8+4.1 grams
food/water intake among the treatment groups ([3]; 5.0, 20.0 and 90.0 mg/kg body weight, 21 days, vs DMSO control): no significant differences
5α-reductase enzyme activity ([4]; 5 mg/kg body weight): 4.6 + 0.4* pmol/hour incubation/mg of protein
5α-reductase enzyme activity ([4]; 20 mg/kg body weight): 3.3 + 0.3* pmol/hour incubation/mg of protein
5α-reductase enzyme activity ([4]; 90 mg/kg body weight): 2.0 + 0.2* pmol/hour incubation/mg of protein
SIRT1 mRNA expression increased by (SIRT1 (Sirtuin 1)): 3.3-fold
Tissue inhibitor of metalloproteinases 1 increased by [5]: 2.5-fold
Type IV collagen alpha 1 increased by (Type IV collagen alpha 1): 1.7-fold
IV collagen alpha 2 increased by (Type IV collagen alpha 2): 1.8-fold
Procollagen III increased by [6]: by 2.2-fold
TIMP2 increased by [7]: 1.3-fold
Protein Kinase C alpha increased by (Protein Kinase C alpha): 2.7-fold
Elastin increased by (Elastin): 2.8-fold
IL-6 decreased by (IL-6 (interleukin 6)): 35.2-fold
IL-1a decreased by (IL-1a (interleukin 1a)): 10.1-fold
IL-8 decreased by (IL-8 (interleukin 8)): 3.8-fold
S100 Calcium binding protein A8 decreased by [8]: 2.7-fold
